Columns and labels:
[1] = test system: CARTyrin-expressing cells; assay: in vitro efficacy of iC9 safety switch with AP1903 (relative viability, live cells per bead events); type: cell-based, Human
Method: FIGS. 2A-2B is a series of graphs depicting results of evaluating the in vitro efficacy of an inducible proapoptotic polypeptide (iC9 safety switch) of the disclosure using the exemplary induction agent AP1903. Cells expressing a CARTyrin of the disclosure were A) thawed and rested overnight or B) activated using ImmunoCult™ Human CD3/CD28/CD2 T cell Activator reagent for 5 days were treated with AP1903 for the indicated length of time and concentrations. All data points were collected in triplicate and relative viability determined by dividing the number of live cells in the treatment group by the average number of live cells in the no treatment group per 1,500 bead events collected. Greater than 80% of the non-activated CARTyrin-expressing cells were eliminated from the culture at 24 hours across all dose levels tested (FIG. 1). There was no observable difference between the 24 hour and 48 hour time point in the non-activated cells. In the activated CARTyrin-expressing cells however, both a dose response as well as temporal response were observed. At 12 hours post AP1903 administration, >65% of the cells were killed by concentrations as low as 1 nM. […] Expression of the CARTyrin is be increased upon activation of the cells, and provided the vector design; the expression of iC9 could also increase. Therefore, an activated cell may express higher levels of iC9 making it more sensitive to AP1903. In many embodiments, the activated cells will be the target if and when employing the safety switch.

[2] = test system: Human pan T-cells with piggyBac integrated iC9; assay: iC9 safety switch test, viability by flow cytometry using 7-AAD; type: cell-based; conditions: iC9-containing modified T cells; 24 hours incubation
Text: Human pan T-cells were nucleofected using an Amaxa 4D nucleofector with one of four piggyBac transposons. Modified T cells receiving the “mock” condition were nucleofected with an empty piggyBac transposon. Modified T cells received either a piggyBac […] containing a therapeutic agent alone (a sequence encoding a CARTyrin) or a piggyBac […] containing an integrated iC9 sequence and a therapeutic agent (a sequence encoding a CARTyrin). To test the iC9 safety switch, each of the four modified T cells were incubated for 24 hours with 0, 0.1 nM, 1 nM, 10 nM, 100 nM or 1000 nM AP1903 (an induction agent for […]). Viability was assessed by flow cytometry using 7-aminoactinomycin D (7-AAD), a fluorescent intercalator, as a marker for cells undergoing apoptosis. Cell viability was assessed at day 12 (see FIG. 2). […] Moreover, cell viability was assessed at day 19 (see FIG. 3). […] A quantification of the aggregated results was performed and is provided in FIG. 4, showing the significant impact of the iC9 safety switch on the percent cell viability as a function of the concentration of the induction agent (AP1903) of the iC9 switch for each modified cell type at either day 12 (FIG. 2 and left graph) or day 19 (FIG. 3 and right graph). […] Furthermore, the iC9 safety switch may be functionally expressed as part of a tricistronic vector.

`CC[C@H](C(=O)N1CCCC[C@H]1C(=O)O[C@H](CCc1ccc(OC)c(OC)c1)c1cccc(OCC(=O)NCCNC(=O)COc2cccc([C@@H](CCc3ccc(OC)c(OC)c3)OC(=O)[C@@H]3CCCCN3C(=O)[C@@H](CC)c3cc(OC)c(OC)c(OC)c3)c2)c1)c1cc(OC)c(OC)c(OC)c1` [AP1903] was tested. Which cells killed ([1]; activated CARTyrin-expressing cells, 12 hours post AP1903, concentrations as low as 1 nM) did it give?
The cells killed was over 65%.

And the cells killed ([1]; activated cells, 48 hours)?
Its cells killed is over 95%.

And the “cells eliminated from the culture” value ([1]; non-activated CARTyrin-expressing cells, 24 hours, all dose levels tested)?
Its value is “Greater than 80%”.

What about the “concentration at which apoptosis is induced (lowest of the study)” value [2] of the same molecule?
The value was 0.1 nM.

From US11744861B2, “Compositions and methods for selective elimination and replacement of hematopoietic stem cells” (Poseida Therapeutics, Inc., priority 2017, dated 2023)
